Experimental data published in the supplement of paper PMC10307832.

Assays:
Test in all cases: relative viability (nuclei count vs DMSO), 5 days (fraction); higher = more cells survive
Wnt-C59 + Pictilisib = compound: CC1=NC=CC(=C1)C2=CC=C(C=C2)CC(=O)NC3=CC=C(C=C3)C4=CN=CC=C4 [Wnt-C59] + CS(=O)(=O)N1CCN(Cc2cc3nc(-c4cccc5[nH]ncc45)nc(N4CCOCC4)c3s2)CC1 [Pictilisib] (partner 1 µM)
Summary of the method: (§1)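 Medians of duplicate plates are given as relative viability. That measure is the nuclei count in treated wells divided by the count in vehicle wells. Counts were taken on 4× images of lung cancer cell lines in 1536-well plates, 5 days after pin-tool dosing the day after seeding with one drug alone or a fixed anchor-drug dose plus five library-drug doses (not always all listed) in √10 steps.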

Lapatinib + Trametinib = compound: CS(=O)(=O)CCNCc1ccc(-c2ccc3ncnc(Nc4ccc(OCc5cccc(F)c5)c(Cl)c4)c3c2)o1 [Lapatinib] + CC(=O)Nc1cccc(-n2c(=O)n(C3CC3)c(=O)c3c(Nc4ccc(I)cc4F)n(C)c(=O)c(C)c32)c1 [Trametinib] (partner 0.02 µM)
Summary of the method: as §1

Lapatinib + Dasatinib = compound: CS(=O)(=O)CCNCc1ccc(-c2ccc3ncnc(Nc4ccc(OCc5cccc(F)c5)c(Cl)c4)c3c2)o1 [Lapatinib] + Cc1nc(Nc2ncc(C(=O)Nc3c(C)cccc3Cl)s2)cc(N2CCN(CCO)CC2)n1 [Dasatinib] (partner 0.075 µM)
Summary of the method: as §1

Lapatinib + Olaparib = compound: CS(=O)(=O)CCNCc1ccc(-c2ccc3ncnc(Nc4ccc(OCc5cccc(F)c5)c(Cl)c4)c3c2)o1 [Lapatinib] + O=C(c1cc(Cc2n[nH]c(=O)c3ccccc23)ccc1F)N1CCN(C(=O)C2CC2)CC1 [Olaparib] (partner 8 µM)
Summary of the method: as §1

Cell Line | relative viability (Wnt-C59 + Pictilisib; first compound 0.001 µM) | relative viability (Wnt-C59 + Pictilisib; first compound 0.01 µM) | relative viability (Wnt-C59 + Pictilisib; first compound 0.03162 µM) | relative viability (Wnt-C59 + Pictilisib; first compound 0.1 µM) | relative viability (Lapatinib + Trametinib; first compound 0.02 µM) | relative viability (Lapatinib + Trametinib; first compound 0.06325 µM) | relative viability (Lapatinib + Trametinib; first compound 0.2 µM) | relative viability (Lapatinib + Trametinib; first compound 0.6325 µM) | relative viability (Lapatinib + Trametinib; first compound 2 µM) | relative viability (Lapatinib + Dasatinib; first compound 0.02 µM) | relative viability (Lapatinib + Dasatinib; first compound 0.06325 µM) | relative viability (Lapatinib + Dasatinib; first compound 0.2 µM) | relative viability (Lapatinib + Dasatinib; first compound 0.6325 µM) | relative viability (Lapatinib + Dasatinib; first compound 2 µM) | relative viability (Lapatinib + Olaparib; first compound 0.02 µM) | relative viability (Lapatinib + Olaparib; first compound 0.06325 µM) | relative viability (Lapatinib + Olaparib; first compound 0.2 µM) | relative viability (Lapatinib + Olaparib; first compound 0.6325 µM) | relative viability (Lapatinib + Olaparib; first compound 2 µM)
201T | 0.704 | 0.676 | 0.676 | 0.698 | 0.735 | 0.719 | 0.694 | 0.726 | 0.651 | 0.566 | 0.382 | 0.596 | 0.62 | 0.599 | 0.85 | 0.848 | 0.858 | 0.833 | 0.778
A549 | 0.534 | 0.541 | 0.408 | 0.484 |  |  |  |  |  |  |  |  |  |  |  | 0.217 | 0.376 | 0.364 | 0.269
A-427 | 0.756 | 0.554 | 0.717 | 0.799 | 0.724 | 0.631 | 0.716 | 0.788 | 0.691 |  | 0.664 | 0.825 | 0.745 | 0.692 | 0.744 | 0.733 | 0.918 | 0.759 | 0.527
ABC-1 | 0.685 | 0.817 | 0.76 | 0.6 |  |  |  |  |  | 0.538 | 0.584 | 0.513 | 0.662 | 0.56 | 0.983 | 0.882 |  | 0.781 | 0.9
BEN | 0.524 | 0.667 | 0.613 | 0.596 | 1.05 | 0.898 | 1.05 | 0.931 | 0.999 |  | 0.307 | 0.303 | 0.28 | 0.358 | 1.13 | 1 | 1.07 | 1.01 | 0.837
CAL-12T | 0.259 |  | 0.436 | 0.511 | 0.308 | 0.257 | 0.313 | 0.29 | 0.203 |  | 0.216 | 0.271 | 0.236 | 0.131 | 0.703 | 0.745 | 0.71 | 0.599 | 0.556
COR-L23 | 0.745 | 0.653 | 0.818 | 0.79 | 0.408 | 0.555 | 0.68 | 0.651 | 0.551 | 0.501 | 0.441 | 0.508 | 0.565 | 0.443 | 0.329 | 0.358 | 0.33 | 0.309 | 0.275
COR-L 105 | 0.368 | 0.315 | 0.413 | 0.446 | 0.433 | 0.419 | 0.402 | 0.363 | 0.393 | 0.266 | 0.238 | 0.277 | 0.232 | 0.205 | 0.603 | 0.657 | 0.647 | 0.669 | 0.406
Calu-6 | 0.856 | 0.973 | 0.998 | 0.873 |  |  |  |  |  |  |  |  |  |  | 0.612 | 0.555 | 0.589 | 0.525 | 0.447
ChaGo-K-1 | 0.461 |  | 0.862 | 1.02 | 0.868 | 0.918 | 0.9 | 0.868 | 0.894 | 0.43 | 0.531 | 0.544 | 0.527 | 0.592 | 0.418 | 0.471 | 0.478 | 0.431 | 0.396
EBC-1 | 0.444 | 0.349 | 0.299 | 0.418 |  |  |  |  |  |  |  |  |  |  | 0.736 | 0.78 | 0.703 | 0.759 | 0.489
EKVX | 0.428 | 0.362 | 0.394 | 0.344 |  | 0.29 | 0.315 | 0.249 | 0.147 |  | 0.321 | 0.423 | 0.384 | 0.196 |  | 0.694 | 0.77 | 0.602 | 0.337
EMC-BAC-2 | 0.5 | 0.491 | 0.463 | 0.453 |  | 0.526 |  | 0.83 | 0.789 | 0.294 | 0.162 | 0.349 | 0.358 | 0.279 |  | 0.447 | 0.56 | 0.537 | 0.528
EPLC-272H | 0.366 | 0.265 | 0.343 | 0.338 |  | 0.25 | 0.281 | 0.246 | 0.293 |  |  | 0.359 | 0.367 | 0.272 | 0.7 | 0.544 | 0.767 | 0.614 | 0.527
H3255 | 0.565 | 0.359 | 0.431 | 0.49 |  | 0.49 | 0.623 | 0.516 | 0.25 | 0.316 | 0.325 | 0.315 | 0.288 | 0.18 | 0.526 | 0.516 | 0.634 | 0.469 | 0.325
HARA | 0.32 | 0.523 | 0.402 | 0.6 | 0.476 | 0.316 | 0.331 | 0.36 | 0.304 |  | 0.195 | 0.244 | 0.242 | 0.19 | 0.712 | 0.552 | 0.957 | 0.618 | 0.402
HCC-15 | 0.74 | 0.711 | 0.732 | 0.723 |  | 0.243 | 0.386 | 0.312 | 0.341 |  | 0.403 | 0.591 | 0.622 | 0.551 |  | 0.706 | 0.689 | 0.659 | 0.621
HCC-44 | 0.597 | 0.639 | 0.621 | 0.772 | 1.03 | 1.05 | 1.16 | 1.04 | 0.807 |  |  |  |  |  | 0.981 | 1 | 0.992 | 0.974 | 0.867
HCC-78 | 0.22 | 0.185 | 0.226 | 0.257 |  | 0.509 | 0.668 | 0.681 | 0.675 |  | 0.42 | 0.333 | 0.464 | 0.411 |  | 0.519 | 0.926 | 0.814 | 0.846
HCC-366 | 0.113 | 0.138 | 0.149 | 0.155 |  | 0.293 | 0.253 | 0.371 | 0.2 |  | 0.493 | 0.572 | 0.722 | 0.544 |  | 0.411 | 0.38 | 0.38 | 0.251
